In paper PMC9898036, “VIP152 is a selective CDK9 inhibitor with pre-clinical in vitro and in vivo efficacy in chronic lymphocytic leukemia” (Leukemia, 2022):
Like-named read-outs stand apart in the source and are kept apart here.

How the values were obtained:
Experiment in all cases: DiscoverX KINOMEscan kinase profiling (468 assays)
Format in all cases: binding
human kinome [1] = biological target: human kinome (Homo sapiens, UniProt O43353); settings: kinase RIPK2 (Entrez RIPK2); compound concentration 1000 nM; read-out: Percent Control
How it was run: (§1)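 VIP152 was run in DMSO, alongside a DMSO control. Readout was qPCR of DNA-tagged kinase still bound to bead-immobilized biotinylated kinase ligands after compound competition.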

human kinome [2] = biological target: human kinome (Homo sapiens, UniProt P52564); settings: MEK6 (Entrez MAP2K6); 100 nM; read-out: Percent Control
How it was run: as §1

human kinome [3] = biological target: human kinome (Homo sapiens, UniProt Q13163); settings: MEK5 (Entrez MAP2K5); 100 nM; read-out: Percent Control
How it was run: as §1

human kinome [4] = biological target: human kinome (Homo sapiens, UniProt P35968); settings: kinase VEGFR2 (Entrez KDR); compound concentration 1000 nM; read-out: Percent Control
How it was run: as §1

human kinome [5] = biological target: human kinome (Homo sapiens, UniProt P51812); settings: compound concentration 1000 nM, read-out: Percent Control
Sequence of human kinome (Homo sapiens, UniProt P51812) (P51812 whole entry): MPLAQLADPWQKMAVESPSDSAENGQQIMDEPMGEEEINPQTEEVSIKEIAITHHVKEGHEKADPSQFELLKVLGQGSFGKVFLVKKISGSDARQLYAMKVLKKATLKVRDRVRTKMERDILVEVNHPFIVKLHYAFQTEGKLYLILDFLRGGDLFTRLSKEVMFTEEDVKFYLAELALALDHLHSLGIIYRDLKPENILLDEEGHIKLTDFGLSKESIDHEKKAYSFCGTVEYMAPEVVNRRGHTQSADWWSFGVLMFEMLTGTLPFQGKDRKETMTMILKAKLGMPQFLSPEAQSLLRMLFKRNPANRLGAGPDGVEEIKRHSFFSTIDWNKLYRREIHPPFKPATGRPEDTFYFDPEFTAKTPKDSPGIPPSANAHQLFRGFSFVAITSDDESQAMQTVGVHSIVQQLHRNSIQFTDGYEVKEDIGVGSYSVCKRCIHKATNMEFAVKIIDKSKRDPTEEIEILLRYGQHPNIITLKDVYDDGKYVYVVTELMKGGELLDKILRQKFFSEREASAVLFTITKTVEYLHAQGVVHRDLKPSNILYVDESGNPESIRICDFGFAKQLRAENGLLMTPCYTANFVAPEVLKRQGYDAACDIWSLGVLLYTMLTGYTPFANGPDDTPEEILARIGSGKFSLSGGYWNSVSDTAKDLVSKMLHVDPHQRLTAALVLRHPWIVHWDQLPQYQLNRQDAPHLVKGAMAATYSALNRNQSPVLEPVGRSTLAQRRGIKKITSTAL
How it was run: as §1

human kinome [6] = biological target: human kinome (Homo sapiens, UniProt O15197); settings: EPHB6; 100 nM; read-out: Percent Control
Sequence of human kinome (Homo sapiens, UniProt O15197) (O15197 32-1021): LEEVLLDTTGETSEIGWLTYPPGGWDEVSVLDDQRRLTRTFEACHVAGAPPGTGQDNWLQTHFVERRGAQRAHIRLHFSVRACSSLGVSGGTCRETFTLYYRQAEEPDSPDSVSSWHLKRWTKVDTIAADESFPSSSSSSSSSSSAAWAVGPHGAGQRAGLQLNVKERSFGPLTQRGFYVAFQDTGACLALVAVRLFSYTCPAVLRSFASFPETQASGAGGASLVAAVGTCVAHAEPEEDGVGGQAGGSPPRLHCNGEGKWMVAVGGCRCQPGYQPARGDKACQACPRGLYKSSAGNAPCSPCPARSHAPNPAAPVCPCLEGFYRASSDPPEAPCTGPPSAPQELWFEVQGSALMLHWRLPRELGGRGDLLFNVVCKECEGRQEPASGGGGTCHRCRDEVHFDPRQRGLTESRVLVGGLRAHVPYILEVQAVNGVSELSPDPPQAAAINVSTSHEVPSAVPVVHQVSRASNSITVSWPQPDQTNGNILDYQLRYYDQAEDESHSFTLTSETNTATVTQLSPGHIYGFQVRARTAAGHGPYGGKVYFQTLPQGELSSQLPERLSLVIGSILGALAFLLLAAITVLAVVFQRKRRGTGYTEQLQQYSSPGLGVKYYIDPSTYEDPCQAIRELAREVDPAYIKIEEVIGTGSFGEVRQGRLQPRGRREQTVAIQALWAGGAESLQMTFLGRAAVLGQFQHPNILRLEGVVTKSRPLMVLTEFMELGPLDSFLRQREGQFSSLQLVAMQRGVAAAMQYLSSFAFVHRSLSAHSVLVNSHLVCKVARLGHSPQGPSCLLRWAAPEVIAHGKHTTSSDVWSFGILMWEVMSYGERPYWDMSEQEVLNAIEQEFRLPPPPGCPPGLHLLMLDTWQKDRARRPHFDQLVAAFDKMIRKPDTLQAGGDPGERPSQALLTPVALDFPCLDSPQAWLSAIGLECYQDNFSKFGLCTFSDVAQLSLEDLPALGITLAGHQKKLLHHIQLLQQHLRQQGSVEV
How it was run: as §1

human kinome [7] = biological target: human kinome (Homo sapiens, UniProt Q9NRM7); settings: LATS2; 100 nM; read-out: Percent Control
How it was run: as §1

human kinome [8] = biological target: human kinome (Homo sapiens, UniProt P36888, R834Q); settings: FLT3(R834Q); 100 nM; read-out: Percent Control
How it was run: as §1

human kinome [9] = biological target: human kinome (Homo sapiens, UniProt P06239); settings: LCK; 100 nM; read-out: Percent Control
How it was run: as §1

human kinome [10] = biological target: human kinome (Homo sapiens, UniProt Q9P289); settings: MST4; 100 nM; read-out: Percent Control
How it was run: as §1

human kinome [11] = biological target: human kinome (Homo sapiens, UniProt Q86Z02); settings: HIPK1; 100 nM; read-out: Percent Control
How it was run: as §1

human kinome [12] = biological target: human kinome (Homo sapiens, UniProt P36888, N841I); settings: FLT3(N841I); 100 nM; read-out: Percent Control
How it was run: as §1

human kinome [13] = biological target: human kinome (Homo sapiens, UniProt P36897); settings: kinase TGFBR1 (Entrez TGFBR1); compound concentration 1000 nM; read-out: Percent Control
How it was run: as §1

human kinome [14] = biological target: human kinome (Homo sapiens, UniProt P42681); settings: kinase TXK (Entrez TXK); compound concentration 1000 nM; read-out: Percent Control
How it was run: as §1

human kinome [15] = biological target: human kinome (Homo sapiens, UniProt O43318); settings: kinase TAK1 (Entrez MAP3K7); compound concentration 1000 nM; read-out: Percent Control
How it was run: as §1

human kinome [16] = biological target: human kinome (Homo sapiens, UniProt P78368); settings: CSNK1G2; 100 nM; read-out: Percent Control
How it was run: as §1

human kinome [17] = biological target: human kinome (Homo sapiens, UniProt P10721); settings: 100 nM, read-out: Percent Control
Sequence of human kinome (Homo sapiens, UniProt P10721) (P10721 26-976): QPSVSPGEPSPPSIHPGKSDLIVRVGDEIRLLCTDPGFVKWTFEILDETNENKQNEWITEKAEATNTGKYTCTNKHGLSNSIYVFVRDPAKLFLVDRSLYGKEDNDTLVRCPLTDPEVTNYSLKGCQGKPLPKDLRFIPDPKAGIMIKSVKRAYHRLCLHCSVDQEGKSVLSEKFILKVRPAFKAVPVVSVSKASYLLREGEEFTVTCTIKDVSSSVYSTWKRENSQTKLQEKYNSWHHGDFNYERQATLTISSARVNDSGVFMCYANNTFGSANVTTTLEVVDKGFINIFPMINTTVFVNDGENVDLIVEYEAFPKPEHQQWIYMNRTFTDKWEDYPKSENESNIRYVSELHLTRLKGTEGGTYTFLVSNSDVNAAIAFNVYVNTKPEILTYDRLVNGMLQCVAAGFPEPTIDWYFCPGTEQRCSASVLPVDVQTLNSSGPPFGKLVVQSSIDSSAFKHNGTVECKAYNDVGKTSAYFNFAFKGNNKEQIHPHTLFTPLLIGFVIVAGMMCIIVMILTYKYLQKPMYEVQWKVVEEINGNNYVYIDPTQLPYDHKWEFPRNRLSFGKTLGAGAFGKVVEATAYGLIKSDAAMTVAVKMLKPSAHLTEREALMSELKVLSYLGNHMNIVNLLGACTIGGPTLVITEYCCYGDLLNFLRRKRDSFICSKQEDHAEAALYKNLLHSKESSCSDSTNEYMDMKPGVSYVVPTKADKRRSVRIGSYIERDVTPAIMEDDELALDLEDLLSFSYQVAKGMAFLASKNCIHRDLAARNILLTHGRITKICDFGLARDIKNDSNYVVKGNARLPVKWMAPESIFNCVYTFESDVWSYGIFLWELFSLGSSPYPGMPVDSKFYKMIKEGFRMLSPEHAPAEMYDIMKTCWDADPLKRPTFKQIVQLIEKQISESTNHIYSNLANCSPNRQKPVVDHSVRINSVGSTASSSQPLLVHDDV
How it was run: as §1

human kinome [18] = biological target: human kinome (Homo sapiens, UniProt P30530); settings: AXL; 100 nM; read-out: Percent Control
How it was run: as §1

human kinome [19] = biological target: human kinome (Homo sapiens, UniProt Q5S007, G2019S); settings: LRRK2(G2019S); 100 nM; read-out: Percent Control
How it was run: as §1

human kinome [20] = biological target: human kinome (Homo sapiens, UniProt P29323); settings: EPHB2; 100 nM; read-out: Percent Control
How it was run: as §1

human kinome [21] = biological target: human kinome (Homo sapiens, UniProt P49761); settings: CLK3; 100 nM; read-out: Percent Control
Sequence of human kinome (Homo sapiens, UniProt P49761) (P49761 whole entry): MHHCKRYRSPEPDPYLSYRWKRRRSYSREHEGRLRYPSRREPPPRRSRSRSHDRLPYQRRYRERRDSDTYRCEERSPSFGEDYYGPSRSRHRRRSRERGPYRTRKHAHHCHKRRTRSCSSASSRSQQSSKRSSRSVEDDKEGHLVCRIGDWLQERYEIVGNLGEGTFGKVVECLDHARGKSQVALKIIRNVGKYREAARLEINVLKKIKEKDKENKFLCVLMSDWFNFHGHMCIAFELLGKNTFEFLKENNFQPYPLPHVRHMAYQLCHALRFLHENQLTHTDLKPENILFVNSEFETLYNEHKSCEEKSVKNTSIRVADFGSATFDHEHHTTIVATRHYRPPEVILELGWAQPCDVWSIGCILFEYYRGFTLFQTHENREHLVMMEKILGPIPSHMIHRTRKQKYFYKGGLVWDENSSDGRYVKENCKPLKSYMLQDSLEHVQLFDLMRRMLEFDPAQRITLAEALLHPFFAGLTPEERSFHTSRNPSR
How it was run: as §1

human kinome [22] = biological target: human kinome (Homo sapiens, UniProt O15146); settings: MUSK; 100 nM; read-out: Percent Control
How it was run: as §1

human kinome [23] = biological target: human kinome (Homo sapiens, UniProt Q9UPZ9); settings: ICK; 100 nM; read-out: Percent Control
How it was run: as §1

human kinome [24] = biological target: human kinome (Homo sapiens, UniProt O00141); settings: kinase SGK (Entrez SGK1); compound concentration 1000 nM; read-out: Percent Control
How it was run: as §1

human kinome [25] = biological target: human kinome (Homo sapiens, UniProt P49336); settings: CDK8; 100 nM; read-out: Percent Control
How it was run: as §1

human kinome [26] = biological target: human kinome (Homo sapiens, UniProt Q15139); settings: read-out: Percent Control
Sequence of human kinome (Homo sapiens, UniProt Q15139) (Q15139 whole entry): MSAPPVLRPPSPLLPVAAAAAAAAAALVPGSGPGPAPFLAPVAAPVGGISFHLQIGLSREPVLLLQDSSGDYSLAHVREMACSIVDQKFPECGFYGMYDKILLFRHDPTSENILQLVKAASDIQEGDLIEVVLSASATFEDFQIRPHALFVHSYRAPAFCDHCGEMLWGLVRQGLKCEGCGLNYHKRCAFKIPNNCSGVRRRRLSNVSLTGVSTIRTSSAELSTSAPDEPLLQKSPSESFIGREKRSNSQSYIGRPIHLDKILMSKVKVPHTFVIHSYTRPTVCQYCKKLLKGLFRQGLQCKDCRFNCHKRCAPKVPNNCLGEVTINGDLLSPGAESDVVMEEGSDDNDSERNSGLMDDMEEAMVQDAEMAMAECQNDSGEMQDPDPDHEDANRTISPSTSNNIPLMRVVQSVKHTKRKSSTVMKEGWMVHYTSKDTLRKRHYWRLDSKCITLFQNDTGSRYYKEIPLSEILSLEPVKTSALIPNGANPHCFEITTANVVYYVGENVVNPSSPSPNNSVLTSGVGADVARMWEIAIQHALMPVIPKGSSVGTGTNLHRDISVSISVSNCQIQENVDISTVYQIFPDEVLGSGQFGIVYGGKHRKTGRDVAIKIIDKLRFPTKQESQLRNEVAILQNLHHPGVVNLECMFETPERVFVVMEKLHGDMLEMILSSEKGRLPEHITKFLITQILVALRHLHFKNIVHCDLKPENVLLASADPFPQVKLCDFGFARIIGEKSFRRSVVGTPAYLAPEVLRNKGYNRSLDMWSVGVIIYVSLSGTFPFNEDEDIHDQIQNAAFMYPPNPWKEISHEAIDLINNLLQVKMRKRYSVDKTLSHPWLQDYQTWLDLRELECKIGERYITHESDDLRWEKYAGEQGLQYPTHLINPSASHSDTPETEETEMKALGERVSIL
How it was run: as §1

human kinome [27] = biological target: human kinome (Homo sapiens, UniProt P45984); settings: JNK2 (Entrez MAPK9); 100 nM; read-out: Percent Control
How it was run: as §1

human kinome [28] = biological target: human kinome (Homo sapiens, UniProt O43683); settings: BUB1; 100 nM; read-out: Percent Control
How it was run: as §1

human kinome [29] = biological target: human kinome (Homo sapiens, UniProt P07333); settings: 100 nM, read-out: Percent Control
Sequence of human kinome (Homo sapiens, UniProt P07333) (P07333 20-972): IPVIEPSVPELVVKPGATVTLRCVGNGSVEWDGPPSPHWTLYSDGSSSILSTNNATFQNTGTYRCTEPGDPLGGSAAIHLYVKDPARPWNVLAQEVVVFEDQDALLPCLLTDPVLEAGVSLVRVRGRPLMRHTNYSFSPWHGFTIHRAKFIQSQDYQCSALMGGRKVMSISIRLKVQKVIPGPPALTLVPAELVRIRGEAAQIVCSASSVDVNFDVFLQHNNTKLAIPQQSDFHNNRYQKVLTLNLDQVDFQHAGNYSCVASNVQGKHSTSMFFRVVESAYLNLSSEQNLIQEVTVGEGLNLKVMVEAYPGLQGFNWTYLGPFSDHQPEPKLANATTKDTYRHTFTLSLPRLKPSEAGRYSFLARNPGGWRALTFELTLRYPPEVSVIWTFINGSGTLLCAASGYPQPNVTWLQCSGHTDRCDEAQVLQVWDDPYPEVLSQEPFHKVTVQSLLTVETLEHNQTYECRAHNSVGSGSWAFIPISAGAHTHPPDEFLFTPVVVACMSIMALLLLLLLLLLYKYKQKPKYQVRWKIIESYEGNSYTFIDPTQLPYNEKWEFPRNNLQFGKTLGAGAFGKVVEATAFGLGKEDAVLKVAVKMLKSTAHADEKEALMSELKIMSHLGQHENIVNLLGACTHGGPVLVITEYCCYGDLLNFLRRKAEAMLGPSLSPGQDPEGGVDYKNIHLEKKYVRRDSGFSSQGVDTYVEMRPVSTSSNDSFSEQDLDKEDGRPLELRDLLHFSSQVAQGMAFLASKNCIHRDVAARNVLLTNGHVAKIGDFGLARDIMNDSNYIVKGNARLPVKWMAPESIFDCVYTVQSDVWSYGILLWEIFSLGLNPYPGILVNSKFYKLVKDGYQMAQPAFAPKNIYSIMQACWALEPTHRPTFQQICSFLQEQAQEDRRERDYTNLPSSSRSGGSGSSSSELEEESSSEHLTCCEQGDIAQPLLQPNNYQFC
How it was run: as §1

human kinome [30] = biological target: human kinome (Homo sapiens, UniProt P15056, V600E); settings: BRAF(V600E); 100 nM; read-out: Percent Control
How it was run: as §1

COc1cc(F)ccc1-c1cc(Nc2cc(CS(C)(=N)=O)ccn2)ncc1F (stereo not shown) [VIP152]
remaining binding at 1 µM (human kinome [1]): 49%
remaining binding at 0.1 µM (human kinome [2]): 100%
remaining binding at 0.1 µM (human kinome [3]): 100%
remaining binding at 1 µM (human kinome [4]): 55%
remaining binding at 1 µM (human kinome [5]; kinase RSK2(Kin.Dom.1-N-terminal) (Entrez RPS6KA3)): 60%
remaining binding at 1 µM (human kinome [5]; kinase RSK2(Kin.Dom.2-C-terminal) (Entrez RPS6KA3)): 80%
remaining binding at 0.1 µM (human kinome [6]): 87%
remaining binding at 0.1 µM (human kinome [7]): 99%
remaining binding at 0.1 µM (human kinome [8]): 100%
remaining binding at 0.1 µM (human kinome [9]): 100%
remaining binding at 0.1 µM (human kinome [10]): 100%
remaining binding at 0.1 µM (human kinome [11]): 63%
remaining binding at 0.1 µM (human kinome [12]): 66%
remaining binding at 1 µM (human kinome [13]): 91%
remaining binding at 1 µM (human kinome [14]): 83%
remaining binding at 1 µM (human kinome [15]): 65%
remaining binding at 0.1 µM (human kinome [16]): 100%
remaining binding at 0.1 µM (human kinome [17]; KIT-autoinhibited): 98%
remaining binding at 0.1 µM (human kinome [17]; KIT): 100%
remaining binding at 0.1 µM (human kinome [18]): 100%
remaining binding at 0.1 µM (human kinome [19]): 100%
remaining binding at 0.1 µM (human kinome [20]): 100%
remaining binding at 0.1 µM (human kinome [21]): 93%
remaining binding at 0.1 µM (human kinome [22]): 99%
remaining binding at 0.1 µM (human kinome [23]): 95%
remaining binding at 1 µM (human kinome [24]): 83%
remaining binding at 0.1 µM (human kinome [25]): 100%
remaining binding at 0.1 µM (human kinome [26]; PRKD1, 100 nM): 71%
remaining binding at 1 µM (human kinome [26]; kinase PRKD1 (Entrez PRKD1), compound concentration 1000 nM): 100%
remaining binding at 0.1 µM (human kinome [27]): 89%
remaining binding at 0.1 µM (human kinome [28]): 100%
remaining binding at 0.1 µM (human kinome [29]; CSF1R-autoinhibited): 95%
remaining binding at 0.1 µM (human kinome [29]; CSF1R): 100%
remaining binding at 0.1 µM (human kinome [30]): 100%
